Laboratory results published in US8940793B2, “4-[(haloalkyl)(dimethyl)ammonio]butanoates and use thereof in the treatment of cardiovascular disease” (JSC Grindeks, priority 2011, dated 2015).
Marks after values point to notes of the source that are not given here.

Key:
isolated rat heart = experiment: Isolated rat heart infarction study after oral treatment (cardioprotective activity); format: in vivo, Wistar rats; settings: for Infarct size, % of control: 20 mg/kg p.o. daily, after 2 weeks of treatment (method: 8 weeks), hearts excised 24 h after last dose, 60 min occlusion, 150 min reperfusion, mean ± s.e.m. of 9-10 animals; for Therapeutical (cardioprotective) effect, in words / Decrease of infarct size: 20 mg/kg p.o., isolated rat heart infarction model; for Decrease of infarct size: versus control
Procedure: Fifty male, 10 weeks old Wistar rats weighing 200-250 g were housed under standard conditions (21-23° C., 12 h light-dark cycle) with unlimited access to food (R3 diet, Lactamin AB, Sweden) and water.
(§1) Rats were adapted to local conditions for two weeks before the start of treatment. Meldonium dihydrate at a dose of 20 mg/kg, gamma-butyrobetaine at a dose of 20 mg/kg and 4-[(chloromethyl)(dimethyl) ammonio]butanoate at dose of 20 mg/kg were administered p.o. daily for 8 weeks. Control rats received water.
The isolated rat heart experiment was performed essentially as described earlier (Liepinsh et al., J. Cardiovasc. Pharmacol. 2006; 48(6):314-9). Twenty-four hours after the last drug administration hearts were excised and retrogradely perfused via the aorta at a constant pressure with oxygenated Krebs-Henseleit buffer at 37° C. The heart rate, left ventricle end-diastolic pressure and left ventricle developed pressure were continuously recorded. Coronary flow was measured using an ultrasound flow detector (HSE) and the PowerLab 8/30 system from ADInstruments. The hearts were perfused for 20 min to stabilize the hemodynamic functions and then occlusion was performed for 60 min by constricting threads through a plastic tube. Successful occlusion was confirmed by a coronary flow decrease of about 40 percent. Reperfusion was achieved by releasing the threads. At the end of the 150-min reperfusion period, the risk zone was delineated with 0.1% methylene blue. The hearts were then sectioned transversely from the apex to the base in five slices 2 mm in thickness and incubated in 1% triphenyltetrazolium chloride in phosphate buffer (pH 7.4, 37° C.) for 10 min to stain viable tissue red and necrotic tissue white. Computerized planemetric analysis of Sony A900 photographs was performed using Image-Pro Plus 6.3 software to determine the area at risk and area of necrosis expressed as a % of the left ventricle. The obtained values were then used to calculate the infarct size (IS) as a % of risk area according to the formula: Infarct Size=Area of Necrosis/Area at Risk×100%. Effects in Isolated Rat Heart Infarction Model
The anti-infarction effect of examined substances was investigated in an isolated rat heart infarction model. During occlusion of left coronary artery, the coronary flow in all experimental groups was decreased for 40% (from 11 ml/min to 7 ml/min). Moreover, the drop of developed left ventricular pressure for 50% was observed. […] In reperfusion stage, coronary flow, developed left ventricular pressure, ±dp/dt values were recovered till about 80% of control level. There were no significant differences between control and treatment groups.
Effects of Meldonium dihydrate (20 mg/kg), gamma-butyrobetaine (20 mg/kg) and 4-[(chloromethyl)(dimethyl) ammonio]butanoate (20 mg/kg) after 2 weeks of treatment on infarct size in the isolated rat heart infarction experiment are presented in Table 1.
as §1, with “3-carboxy-N-(2-chloroethyl)-N,N-dimethylpropan-1-aminium chloride” for “4-[(chloromethyl)(dimethyl) ammonio]butanoate”
Effects of Meldonium dihydrate (20 mg/kg), gamma-butyrobetaine (20 mg/kg) and 3-carboxy-N-(2-chloroethyl)-N,N-dimethylpropan-1-aminium chloride (20 mg/kg) after 2 weeks of treatment on infarct size in the isolated rat heart infarction experiment are presented in Table 2.
The same experimental conditions as above were used for testing 3-carboxy-N-(2-fluoroethyl)-N,N-dimethylpropan-1-aminium chloride.
Effects of Meldonium dihydrate (20 mg/kg), gamma-butyrobetaine (20 mg/kg) and 3-carboxy-N-(2-fluoroethyl)-N,N-dimethylpropan-1-aminium chloride (20 mg/kg) after 2 weeks of treatment on infarct size in the isolated rat heart infarction experiment are presented in Table 3.

[1] = s.c.; cited from earlier work

SMILES | Infarct size, % of control (isolated rat heart) | Therapeutical (cardioprotective) effect, in words (isolated rat heart) | Decrease of infarct size (isolated rat heart) | melting point | LD50 [1]
C[N+](C)(CCCl)CCCC(=O)O.[Cl-] [3-carboxy-N-(2-chloroethyl)-N,N-dimethylpropan-1-aminium chloride] | 59.9 ± 7.6*^,#,$ % of control | best therapeutical effect | 41.1% | 130 °C | 
C[N+](C)(CCF)CCCC(=O)O.[Cl-] [3-carboxy-N-(2-fluoroethyl)-N,N-dimethylpropan-1-aminium chloride] | 65.5 ± 9.1*^,#,$ % of control | best therapeutical effect | 34.5% |  | 
C[N+](C)(CCl)CCCC(=O)[O-] [4-[(chloromethyl)(dimethyl)ammonio]butanoate] | 65.2 ± 6.8*^,#,$ % of control | best therapeutical effect | 34.8% | 100.5 to 101 °C | 
C[N+](C)(C)CCCC(=O)[O-] [Gamma-butyrobetaine, γ-Butyrobetaine, reference compound] | 87.6 ± 11.4 % of control |  | ~12.4% |  | > 7000 mg/kg
C[N+](C)(C)NCCC(=O)[O-] [Meldonium dihydrate, 3-(2,2,2-Trimethylhydrazinium) propionate dihydrate, reference compound] | 117.9 ± 7.9 % of control |  |  |  | 
